Laboratory results published in US20120282358A1, “ORAL ADMINISTRATION COMPOSITION” (UNITIKA LTD., priority 2007, published 2012).

Tests used:
[1] = Applicant's own test of β-cryptoxanthin alone for obesity prevention / fat reduction; details: no details given
[2] = tested on: Female mice of KK-Ay/TacJc1 line (diabetes mellitus type II model animal); assay: Test Examples 2-1, 2-2, 2-3: KK-Ay mice on high fat feed, 4 weeks; body weight, blood triglyceride, visceral white fat tissue mass; type: in vivo; details: for mass of visceral fat (abdominal white fat tissue): 29th day after commencement of administration; for mass of visceral fat (abdominal white fat tissue) / triglyceride content in blood: in comparison with control group; for change in body weight / triglyceride content in blood: mixed in high fat feed, 4 weeks; for change in body weight: measured on 7th, 14th, 21st, 28th days, in comparison with control group (high fat feed alone); for triglyceride content in blood: Triglyceride E-test Wako
Procedure: Female mice of KK-Ay/TacJc1 line (6 weeks of age: manufactured by CLEA Japan Inc.), established as a diabetes mellitus type II model animal, were divided into groups of 6 animals per group, and the composition obtained in Example 1 was mixed with a high fat feed at a ratio of 4% and subjected to free ingestion together with water. The high fat feed alone was allowed to be ingested by the control group.
The administration was carried out for 4 weeks, and the body weight was measured before the administration and on the 7th, 14th, 21st and 28th days after the administration.
Simultaneously with the measurement of body weights of the mice used in Test Example 1-1, blood collection was carried out and the triglyceride content in blood was measured using Triglyceride E-test Wako (manufactured by Wako Pure Chemical Industries, Ltd.) The result is shown in FIG. 11.
The mice used in Test Example 2-1 were sacrificed on the 29th day after commencement of the administration, and collection of the visceral fat, namely white fat tissue, was carried out to compare their mass.

[3] = tested on: Female mice of KK-Ay/TacJc1 line (diabetes mellitus type II model animal); assay: Test Example 1-2: KK-Ay mice on high fat feed, 4 weeks; body weight, triglyceride, abdominal white fat tissue weight; type: in vivo; details: 29th day; in comparison with Comparative Example 1-2 and Comparative Example 1-4; FIG. 9
From the text: Female mice of KK-Ay/TacJc1 line (6 weeks of age, manufactured by CLEA Japan Inc.), established as a diabetes mellitus type II model animal, were divided into groups of 6 animals per group, and β-cryptoxanthin (95% in purity, manufactured by SHIKOKU YASHIMA PURE CHEMICALS CO., LTD.) and glucosylceramide (3% in purity, konnyaku ceramide manufactured by UNITIKA, LTD.) were mixed with a high fat feed, at the ratios of 0.2% and 4% respectively, and subjected to free ingestion together with water. As the control group, tests were carried out by providing the mice with a high fat feed (CLEA Rodent Diet Quick Fat, manufactured by CLEA Japan Inc) to which nothing was added (Comparative Example 1-2), the high fat feed to which 0.2% of β-cryptoxanthin alone was added (Comparative Example 1-3) and the high fat feed to which 4% of glucosylceramide alone was added (Comparative Example 1-4).
The administration was carried out for 4 weeks, and body weight and triglyceride content were measured before the administration and on the 7th, 14th, 21st and 28th days after the administration. In addition, the mice were sacrificed on the 29th day after the commencement of administration, and the visceral fats, namely abdominal white fat tissues, were collected and their weights were compared. The results are shown in FIG. 7, FIG. 8 and FIG. 9, respectively.

Compound	action by individual use (obesity prevention / fat reduction) [1]	mass of visceral fat (abdominal white fat tissue) [2]	change in body weight [2]	triglyceride content in blood [2]	abdominal fat tissue weight [3]
CC1=C(/C=C/C(C)=C/C=C/C(C)=C/C=C/C=C(C)/C=C/C=C(C)/C=C/C2=C(C)C[C@@H](O)CC2(C)C)C(C)(C)CCC1 [β-cryptoxanthin]	weak	–	–	–	–
a-glycosylhesperidin [Comparative Example 4]	–	reduction of the visceral fat was not found	significant difference was not found	significant difference was not found	–
CC1=C(/C=C/C(C)=C/C=C/C(C)=C/C=C/C=C(C)/C=C/C=C(C)/C=C/C2=C(C)C[C@@H](O)CC2(C)C)C(C)(C)CCC1 [Comparative Example 1-3, β-cryptoxanthin]	–	–	–	–	significantly reduced
CC1=C(/C=C/C(C)=C/C=C/C(C)=C/C=C/C=C(C)/C=C/C=C(C)/C=C/C2=C(C)C[C@@H](O)CC2(C)C)C(C)(C)CCC1 [Comparative Example 3, β-cryptoxanthin]	–	significantly reduced	significantly reduced on the 28th day	significantly reduced on the 21st and 28th days	–
